According to PMC8253220, “Molecular design, synthesis and in vitro biological evaluation of thienopyrimidine–hydroxamic acids as chimeric kinase HDAC inhibitors: a challenging approach to combat cancer” (Journal of Enzyme Inhibition and Medicinal Chemistry, 2021):
“And” between values parts separate entries of the source, which are not always exact repeats. Identical values can stand only once.

Experiments:
Type in all cases: cell-based, human
full NCI 60 cell panel = assay: NCI one-dose screen, whole panel statistics; details: 1.00E-5 Molar; for Mean Growth Percent: mean over panel
Outline: (§1)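 Compounds were tested at a single dose of 10 μM across the full NCI-60 cell line panel. Growth was expressed as percent growth relative to untreated control cells, reported as percent inhibition.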

KM12 = assay: NCI one-dose screen; details: Colon KM12, 10 µM single dose
Outline: (§2)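 Screening used the full NCI panel of 60 cancer cell lines with compounds dosed once at 10 μM; the reported value is percent growth inhibition versus untreated controls.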

OVCAR-4 = assay: NCI one-dose screen; details: Ovarian OVCAR-4, 10 µM single dose
Outline: (§3)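 At 10 μM, a single concentration, compounds were evaluated for antiproliferative effect in the NCI 60-line screen, with growth expressed relative to untreated control cells.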

OVCAR-5 = assay: NCI one-dose screen; details: Ovarian OVCAR-5, 10 µM single dose
Outline: as §3

MDA-MB-435 = assay: NCI one-dose screen; details: Melanoma MDA-MB-435, 10 µM single dose
Outline: as §3

SN12C = assay: NCI one-dose screen; details: Renal SN12C, 10 µM single dose
Outline: as §3

HL-60(TB) = assay: NCI one-dose screen; details: Leukemia HL-60(TB), 10 µM single dose
Outline: as §3

HCC-2998 = assay: NCI one-dose screen; details: Colon HCC-2998, 10 µM single dose
Outline: as §3

RPMI-8226 = assay: NCI one-dose screen; details: Leukemia RPMI-8226, 10 µM single dose
Outline: as §3

HOP-92 = assay: NCI one-dose screen; details: NSCLC HOP-92, 10 µM single dose
Outline: as §3

HOP-62 = assay: NCI one-dose screen; details: NSCLC HOP-62, 10 µM single dose
Outline: as §1

SK-OV-3 = assay: NCI one-dose screen; details: Ovarian SK-OV-3, 10 µM single dose
Outline: as §3

OVCAR-3 = assay: NCI one-dose screen; details: Ovarian OVCAR-3, 10 µM single dose
Outline: as §3

SK-MEL-28 = assay: NCI one-dose screen; details: Melanoma SK-MEL-28, 10 µM single dose
Outline: as §1

EKVX = assay: NCI one-dose screen; details: NSCLC EKVX, 10 µM single dose
Outline: (§4)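 Following the standard NCI-60 protocol, compounds were applied once at 10 μM to all 60 cancer lines. Read-out is percent growth versus untreated controls, expressed as inhibition %.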

PC-3 = assay: NCI one-dose screen; details: Prostate PC-3, 10 µM single dose
Outline: as §1

UO-31 = assay: NCI one-dose screen; details: Renal UO-31, 10 µM single dose
Outline: as §4

TK-10 = assay: NCI one-dose screen; details: Renal TK-10, 10 µM single dose
Outline: as §3

BT-549 = assay: NCI one-dose screen; details: Breast BT-549, 10 µM single dose
Outline: as §3

UACC-257 = assay: NCI one-dose screen; details: Melanoma UACC-257, 10 µM single dose
Outline: as §1

A549/ATCC = assay: NCI one-dose screen; details: NSCLC A549/ATCC, 10 µM single dose
Outline: as §3

U251 = assay: NCI one-dose screen; details: CNS U251, 10 µM single dose
Outline: as §4

SK-MEL-5 = assay: NCI one-dose screen; details: Melanoma SK-MEL-5, 10 µM single dose
Outline: as §3

HCT-15 = assay: NCI one-dose screen; details: Colon HCT-15, 10 µM single dose
Outline: as §3

MDA-MB-468 = assay: NCI one-dose screen; details: Breast MDA-MB-468, 10 µM single dose
Outline: as §2

DU-145 = assay: NCI one-dose screen; details: Prostate DU-145, 10 µM single dose
Outline: as §3

SF-539 = assay: NCI one-dose screen; details: CNS SF-539, 10 µM single dose
Outline: as §2

SF-295 = assay: NCI one-dose screen; details: CNS SF-295, 10 µM single dose
Outline: as §3

MDA-MB-231/ATCC = assay: NCI one-dose screen; details: Breast MDA-MB-231/ATCC, 10 µM single dose
Outline: as §3

MCF7 = assay: NCI one-dose screen; details: Breast MCF7, 10 µM single dose
Outline: as §2

OVCAR-8 = assay: NCI one-dose screen; details: Ovarian OVCAR-8, 10 µM single dose
Outline: as §3

NCI-H322M = assay: NCI one-dose screen; details: NSCLC NCI-H322M, 10 µM single dose
Outline: as §3

HS 578T = assay: NCI one-dose screen; details: Breast HS 578T, 10 µM single dose
Outline: as §3

RXF 393 = assay: NCI one-dose screen; details: Renal RXF 393, 10 µM single dose
Outline: as §3

NCI-H460 = assay: NCI one-dose screen; details: NSCLC NCI-H460, 10 µM single dose
Outline: as §3

CAKI-1 = assay: NCI one-dose screen; details: Renal CAKI-1, 10 µM single dose
Outline: as §3

Cc1c(C(=O)NCCC(=O)NO)sc2ncnc(Nc3ccccc3)c12 [Compound 19b, N-(3-(hydroxyamino)-3-oxopropyl)-5-methyl-4-(phenylamino)thieno[2,3-d]pyrimidine-6-carboxamide]
Delta (one dose mean graph) (full NCI 60 cell panel): 19.11% | Range (one dose mean graph) (full NCI 60 cell panel): 40.57% | Mean Growth Percent (full NCI 60 cell panel): 100.57% | Growth Percent (KM12): 101.9% and 101.98% | Growth Percent (OVCAR-4): 104.9% and 104.94% | Growth Percent (OVCAR-5): 102.0% and 102.09% | Growth Percent (MDA-MB-435): 102.9% and 102.98% | Growth Percent (SN12C): 98.5% and 98.51% | Growth Percent (HL-60(TB)): 103.7% | Growth Percent (HCC-2998): 97.7% | Growth Percent (RPMI-8226): 103.3% and 103.33% | Growth Percent (HOP-92): 102.5% | Growth Percent (HOP-62): 100.4% and 100.46% | Growth Percent (SK-OV-3): 122.0% and 122.03% | Growth Percent (OVCAR-3): 115.3% and 115.34% | Growth Percent (SK-MEL-28): 107.9% and 107.91% | Growth Percent (EKVX): 87.3% and 87.34% | Growth Percent (PC-3): 105.1% and 105.18% | Growth Percent (UO-31): 86.4% and 86.41% | Growth Percent (TK-10): 108.2% and 108.29% | Growth Percent (BT-549): 109.1% and 109.16% | Growth Percent (UACC-257): 105.0% and 105.04% | Growth Percent (A549/ATCC): 98.3% | Growth Percent (U251): 101.5% and 101.54% | Growth Percent (SK-MEL-5): 94.4% and 94.42% | Growth Percent (HCT-15): 95.0% and 95.07% | Growth Percent (MDA-MB-468): 92.2% and 92.23% | Growth Percent (DU-145): 108.0% and 108.08% | Growth Percent (SF-539): 93.6% and 93.63% | Growth Percent (SF-295): 91.8% and 91.88% | Growth Percent (MDA-MB-231/ATCC): 101.7% and 101.73% | Growth Percent (MCF7): 92.3% and 92.31% | Growth Percent (OVCAR-8): 99.4% and 99.45% | Growth Percent (NCI-H322M): 99.0% and 99.06% | Growth Percent (HS 578T): 103.8% and 103.85% | Growth Percent (RXF 393): 94.1% and 94.17% | Growth Percent (NCI-H460): 100.8% and 100.82% | Growth Percent (CAKI-1): 96.2% and 96.21%

Cc1c(C(=O)NCCC(=O)NO)sc2ncnc(Nc3ccc(Cl)cc3)c12 [Compound 19c, 4–(4-chlorophenylamino)-N-(3-(hydroxyamino)-3-oxopropyl)-5-methylthieno[2,3-d]pyrimidine-6-carboxamide]
Delta (one dose mean graph) (full NCI 60 cell panel): 24.83% | Range (one dose mean graph) (full NCI 60 cell panel): 44.72% | Mean Growth Percent (full NCI 60 cell panel): 104.82% | Growth Percent (KM12): 102.0% and 102.09% | Growth Percent (OVCAR-4): 112.3% and 112.39% | Growth Percent (OVCAR-5): 110.3% and 110.34% | Growth Percent (MDA-MB-435): 102.9% and 102.91% | Growth Percent (SN12C): 101.7% and 101.77% | Growth Percent (HL-60(TB)): 104.5% and 104.56% | Growth Percent (HCC-2998): 105.3% and 105.39% | Growth Percent (RPMI-8226): 105.4% and 105.48% | Growth Percent (HOP-92): 124.7% and 124.71% | Growth Percent (HOP-62): 105.8% and 105.87% | Growth Percent (SK-OV-3): 120.6% and 120.62% | Growth Percent (OVCAR-3): 110.3% and 110.31% | Growth Percent (SK-MEL-28): 112.1% | Growth Percent (EKVX): 98.4% and 98.49% | Growth Percent (PC-3): 110.4% and 110.47% | Growth Percent (UO-31): 79.9% and 79.99% | Growth Percent (TK-10): 115.9% and 115.96% | Growth Percent (BT-549): 103.5% and 103.54% | Growth Percent (UACC-257): 115.4% | Growth Percent (A549/ATCC): 107.5% and 107.54% | Growth Percent (U251): 104.8% and 104.84% | Growth Percent (SK-MEL-5): 102.4% and 102.44% | Growth Percent (HCT-15): 99.7% and 99.76% | Growth Percent (MDA-MB-468): 119.7% and 119.73% | Growth Percent (DU-145): 114.2% | Growth Percent (SF-539): 99.0% | Growth Percent (SF-295): 99.7% and 99.97% | Growth Percent (MDA-MB-231/ATCC): 104.1% and 104.18% | Growth Percent (MCF7): 93.4% | Growth Percent (OVCAR-8): 104.1% and 104.13% | Growth Percent (NCI-H322M): 105.7% and 105.79% | Growth Percent (HS 578T): 105.8% and 105.84% | Growth Percent (RXF 393): 109.2% and 109.21% | Growth Percent (NCI-H460): 100.4% and 100.45% | Growth Percent (CAKI-1): 90.4% and 90.48%
